In ChEMBL document CHEMBL1126396 (Bioorg Med Chem Lett, 1992):

Tests used:
Somatostatin receptor [1] = assay: Radioligand binding studies on rat cortex membranes using 125 I-Tyrs-octreotide as ligand was determined
Somatostatin receptor [2] = assay: Inhibitory activity against Somatostatin receptor in rat cortex membrane using 125 I-Tyrs-octreotide as radioligand; format: cell membranes

Structure (SMILES): NCCCCCOCC1OC(OCCc2c[nH]c3ccccc23)C(OCc2ccccc2)C1OCc1ccccc1 (configuration not stated)
- IC50 (Somatostatin receptor [1]): 23 µM
- Log Ki (Somatostatin receptor [2]): -4.73
